Experimental data: patent US20070270371A1, “Dosing and scheduling of oligomers” (priority 2006, published 2007)
{FAM} = fluorescein (FAM) label

Assays:
[1] = test system: PC-3-Bcl-2 xenograft tumors; settings: mouse, in vivo
Procedure: When the average tumor size was 65 mm^3, animals were randomized and the right flank of the xenograft tumor bearing mice were pre-treated with 5 Gy X-ray prior to administration of fluoresceinated G3139 oligonucleotide intravenously at a low dose of 6 mg/kg, daily for 5 days (top left panel); at a high dose of 10 mg/kg on given intermittently on days 1, 3, and 5 (top middle panel); a single dose of 30 mg/kg on the same day of X-ray pre-treatment (top right panel); and non-treated left flank bearing xenograft tumor (bottom 3 panels). Each mouse received a total dose of 30 mg/kg fluorescent G3139.
On day 8, animals were sacrificed, subcutaneous and organs were resected, and counterstained with DAPI as an internal staining control for nucleus staining. The resected tissues were processed as in Example 1 described above and fluorescence intensity was recorded using a stereomicroscope (Zeiss, 40) and spot camera (Qimaging). The signal intensity was recorded in three areas of each sample and quantified using MCID Elite (Imaging Research) and averaged to yield the reported intensities.

[2] = test system: A549 NSCLC xenograft tumors; experiment: Tumor growth of NSCLC xenografts under G3139 dosing schedules (Example 4); type: in vivo, mice
Procedure: In vivo tumor model: NSCLC xenograft tumors were established in the flank of male athymic nude mice by injecting subcutaneously 5 to 9×10^6 A549 tumor cells. […] Twenty mg/kg injections every other days for 4 weeks (total 14 days) were also carried. At 30 mg/kg and 40 mg/kg, mice were injected every two- or three-day intervals respectively. (FIG. 6). The tumor growth were measured 15 - 55 days post-implantation and the tumor volumes were calculated based on the formula: [(width)^2×length]/2. […] Tumors in mice injected with higher doses but interminttently with 2-3 days intervals also grew slower than mice treated with daily doses at lower doses.

[3] = human, in vivo, iv; cited from earlier work
[4] = in vivo, sc; cited from earlier work

Row | Substance | staining of tumor cells [1] | tumor growth ([2]; 20 mg/kg IP every other day vs 10 mg/kg daily (total 280 mg/kg), 15-55 days post-implantation) | tumor growth ([2]; higher doses intermittently at 2-3 day intervals vs daily lower doses) | plasma half life [3] | time until plasma concentration becomes undetectable [3] | persistence of the oligonucleotide in tumor after administration of radiation and G3139 ([1]; iv, 30 mg/kg) | mean plasma half-life for elimination [4] | steady state plasma levels observed after the beginning of infusion [4]
1 | FAM-G3139: fluorescent G3139, F - TCTCCCAGCGTGCGCCAT-3′, phosphorothioate oligonucleotide targeting bcl-2 (all phosphorothioate, 5' {FAM}, sugars by position and methylation of C not given here) | no visible staining | – | – | – | – | – | – | –
2 | oblimersen [G3139] | – | grew slower | grew slower | about 60 minutes | ≤ 4 h | 7 days | 7.46 h | 48 h
